Reference: US10477864B2, “Microbiocidal quinoline (thio)carboxamide derivatives” (priority 2016, dated 2019)

Experiments:
[1] = test system: Botryotinia fuckeliana (Botrytis cinerea); experiment: Botryotinia fuckeliana (Botrytis cinerea) / liquid culture (gray mould); assay type: cell-based; settings: 72 h, read-out: control of Botryotinia fuckeliana
Fusarium culmorum [2] = experiment: microbe, parasite or virus in culture; assay type: cell-based; settings: read-out: control of Fusarium culmorum
Fusarium culmorum [3] = experiment: whole plant or invertebrate; assay type: in vivo; settings: in Triticum aestivum, read-out: control of Fusarium culmorum
[4] = test system: Glomerella lagenarium (Colletotrichum lagenarium); experiment: Glomerella lagenarium (Colletotrichum lagenarium) / liquid culture (anthracnose); assay type: cell-based; settings: Colletotrichum orbiculare; read-out: control of Glomerella lagenarium
[5] = test system: Monographella nivalis (Microdochium nivale); experiment: Monographella nivalis (Microdochium nivale) / liquid culture (foot rot cereals); assay type: cell-based; settings: 96 h, read-out: control of Monographella nivalis
[6] = test system: Magnaporthe grisea (Pyricularia oryzae); experiment: microbe, parasite or virus in culture; assay type: cell-based; settings: 72 h, read-out: control of Magnaporthe grisea
[7] = test system: Mycosphaerella graminicola (Septoria tritici); experiment: Mycosphaerella graminicola (Septoria tritici) / liquid culture (Septoria blotch); assay type: cell-based; settings: Zymoseptoria tritici; read-out: control of Mycosphaerella graminicola
Gaeumannomyces graminis = Gaeumannomyces graminis / liquid culture (take-all of cereals); assay type: cell-based; settings: read-out: control of Gaeumannomyces graminis
Sclerotinia sclerotiorum = Sclerotinia sclerotiorum / liquid culture (cottony rot); settings: 72 h, read-out: control of Sclerotinia sclerotiorum
Protocol: Sclerotinia sclerotiorum/Liquid Culture (Cottony Rot)
Mycelia fragments of a newly grown liquid culture of the fungus are directly mixed into nutrient broth (Vogels broth). After placing a (DMSO) solution of test compound into a microtiter plate (96-well format) the nutrient broth containing the fungal material is added. The test plates are incubated at 24° C. and the inhibition of growth is determined photometrically 3-4 days after application.

| SMILES | inhibition of growth at 200 ppm [1] [%] | inhibition of growth at 200 ppm (Fusarium culmorum [2]) [%] | pest or weed control at 200 ppm (Fusarium culmorum [3]) [%] | inhibition of growth at 200 ppm [4] [%] | inhibition of growth at 200 ppm [5] [%] | inhibition of growth at 200 ppm [6] [%] | inhibition of growth at 200 ppm [7] [%] | melting point [°C] | inhibition of growth at 200 ppm (Gaeumannomyces graminis) [%] | inhibition of growth at 20 ppm (Sclerotinia sclerotiorum) [%] |
| --- | --- | --- | --- | --- | --- | --- | --- | --- | --- | --- |
| Cc1cccc2cc(C(=O)NC(C)(Cc3ccccc3)CC(F)(F)F)cnc12 (centres unmarked) [Compound E-61, N-(1-benzyl-3,3,3-trifluoro-1-methyl-propyl)-8-methyl-quinoline-3-carboxamide] | ≥ 80 | ≥ 80 | ≥ 80 | ≥ 80 | ≥ 80 | ≥ 80 | ≥ 80 | 120 to 123 | – | – |
| C=C(C)CC(C)(Cc1ccccc1)NC(=O)c1cnc2c(F)c(F)ccc2c1 (centres unmarked) [Compound E-55, N-(1-benzyl-1,3-dimethyl-but-3-enyl)-7,8-difluoro-quinoline-3-carboxamide] | ≥ 80 | ≥ 80 | ≥ 80 | ≥ 80 | ≥ 80 | ≥ 80 | ≥ 80 | 94 to 96 | – | – |
| CC(C)C[C@@](C)(Cc1ccccc1)NC(=O)c1cnc2c(F)cccc2c1 [Compound F-2, N-[(1S)-1-benzyl-1,3-dimethyl-butyl]-8-fluoro-quinoline-3-carboxamide] | ≥ 80 | ≥ 80 | ≥ 80 | ≥ 80 | ≥ 80 | – | ≥ 80 | – | ≥ 80 | ≥ 80 |
| CC(C)C[C@@](C)(Cc1ccccc1)NC(=O)c1cnc2ccccc2c1 [Compound F-6, N-[(1S)-1-benzyl-1,3-dimethyl-butyl]quinoline-3-carboxamide] | ≥ 80 | ≥ 80 | – | ≥ 80 | – | – | ≥ 80 | – | ≥ 80 | – |
| CC(C)(Cc1ccccc1F)NC(=O)c1cnc2ccccc2c1 [Compound E-2, N-[2-(2-fluorophenyl)-1,1-dimethyl-ethyl]quinoline-3-carboxamide] | ≥ 80 | ≥ 80 | – | ≥ 80 | ≥ 80 | – | ≥ 80 | – | ≥ 80 | – |
| CC(C)CC(C)(Cc1ccccc1)NC(=O)c1cnc2c(F)cccc2c1 (centres unmarked) [Compound E-6, N-(1-benzyl-1,3-dimethyl-butyl)-8-fluoro-quinoline-3-carboxamide] | ≥ 80 | ≥ 80 | ≥ 80 | ≥ 80 | ≥ 80 | ≥ 80 | ≥ 80 | 110 to 112 | ≥ 80 | ≥ 80 |
| CC(C)C[C@H](Cc1ccccc1)NC(=O)c1cnc2c(F)cccc2c1 [Compound F-3, N-[(1R)-1-benzyl-3-methyl-butyl]-8-fluoro-quinoline-3-carboxamide] | ≥ 80 | ≥ 80 | ≥ 80 | ≥ 80 | – | – | ≥ 80 | – | ≥ 80 | ≥ 80 |
| CC(C)(O)CC(C)(Cc1ccccc1)NC(=O)c1cnc2c(F)cccc2c1 (centres unmarked) [Compound E-58, N-(1-benzyl-3-hydroxy-1,3-dimethyl-butyl)-8-fluoro-quinoline-3-carboxamide] | ≥ 80 | ≥ 80 | ≥ 80 | ≥ 80 | ≥ 80 | ≥ 80 | ≥ 80 | – | – | – |
